Test results taken from patent publication US6653354B2, “NMDA antagonist comprising xenon” (priority 1999, dated 2003).
Entries after “also recorded” stand apart in the source; their conditions may differ.

What was measured:
[1] = system: c Fos expression in arcuate nucleus of hypothalamus; assay: c Fos expression in arcuate nucleus after NMA (inhibition of synaptic plasticity in vivo); set-up: species or system Sprague Dawley female adult rats; settings: 75% Xe + NMA 100 mg/kg s.c.
From the text: With exposure to NMA neuronal activation is enhanced (E vs A) which is indicative of synaptic plasticity. In the presence of both Xenon (D) and MK 801 (B), synaptic plasticity induced by NMA is inhibited. […] This is sometimes referred to as long term potentiation, an example of synaptic plasticity. […] The attenuation of c Fos expression is a reflection of the inhibition of synaptic plasticity.

[2] = system: cortical neuronal-glial co-culture injured with glutamate; assay: Glutamate-induced neuronal injury in neuronal-glial co-culture (LDH release); type: cell-based, mouse
Method: Dissociated murine cortical cell cultures were prepared using whole cerebral neocortices from fetal mice (14-17 days of gestation). Cortical glial cell cultures were prepared from early postnatal mice. After halting non-neuronal cell division with cytosine arabinoside the surviving cortical neuronal cells were plated onto the glial cell background and co-cultured.
15 days after originally harvesting the cortical cells, the co-culture plates were exposed at room temperature to glutamate 10-1,000 μM, in CCS from 10-30 minutes. After carefully washing out with CCS, the cells were incubated for 6-24 hours in a Eagle's minimal essential medium free of glutamate or lactate dehydrogenase (LDH) but supplemented with glucose 25 mM, and NaHCO3 38 mM at 37° C. in humidified CO2 (5%) atmosphere. The degree of injury was determined by measuring the LDH released into the medium. A dose-response curve of glutamate-induced injury is shown in FIG. 11, as described hereinbefore.
75% of one atmosphere of xenon was delivered to the cells during and after exposure to 75 μM glutamate, a concentration which produces a near maximal injury. The degree of injury was determined by measuring the LDH released into the medium (after correcting for “baseline” LDH release). Xenon reduced the injury produced by glutamate by more than 35%; when xenon was continued after glutamate exposure, the injury was further reduced by more than 60%. The results of the protective effect of xenon are illustrated in FIG. 13, as described hereinbefore.

[3] = system: GABAergic synapses (GABAA receptors) of hippocampal neurons; type: cell-based, rat
Method: Hippocampal neurons were grown in culture using methods described previously (Segal M M et al, J. Neurophysiol. 1990, 64:1390-1399; Bekkers J M et al, Proc. Natl. Acad. Sci. U.S.A. 1991, 88:7834-7838; Mennerick S et al, J. Neurophysiol. 1995, 73:320-332). Briefly, hippocampi from Sprague Dawley rats (postnatal day 1-3) were dissected, roughly sliced and agitated in a papain-containing solution (20 units ml^−1) for 30 minutes at 37 EC. After washing with enzyme-free solution, the tissue was gently triturated with a fire-polished Pasteur pipette and the cells were plated out at a density of 8-10×10^4 cells ml^−1 and cultured (95% air/5% CO2) at 37° C. Glass coverslips used for culturing the cells were first coated with agarose (0.15% w/v) and then sprayed with a fine mist of poly-D-lysine (PDL) and collagen (0.1 mg ml^−1 PDL and 0.5 mg ml^−1 rat-tail collagen) from a glass micro-atomiser and sterilized by UV exposure. This produced micro-islands of permissive substrate with diameters of between 100 and 1000 μm. At 3-4 days after plating, when the glial cell layer was about 80% confluent, an anti-mitotic agent (cytosine β-D-arabinofuranoside, 5 μM) was added to arrest glial cell proliferation. Neuronal cultures were then allowed to mature for another 4-9 days. We used micro-islands which contained single isolated neurons whose axonal processes and dendritic trees formed multiple self-synapses (autapses). This procedure provided a large population of phenotypically identical monosynaptic connections.
The neurons were voltage-clamped using the whole-cell recording technique (Axopatch 200 amplifier, Axon Instruments, Foster City, Calif.). Electrodes were fabricated from borosilicate glass and typically had resistances of between 3-5 MΩ. Series resistance was compensated by 75-90%. Neurons were voltage-clamped at −60 mV, and synaptic responses were stimulated by a 2 ms depolarising pulse to +20 mV. […] For the synaptic measurements, data were sampled at 50 kHz, filtered at 20 kHz (−3 dB, 8-pole Bessel) and stored on a computer. The extracellular recording solution was (mM) 137 NaCl, 5 KCl, 3 CaCl2, 5 HEPES, 10 glucose, 0.001 glycine, 0.0001 strychnine-HCl, titrated to pH 7.3 with NaOH; and the intracellular (pipette) solution was (mM) 140 KCl, 4 NaCl, 0.5 EGTA, 2 MgATP, 10 HEPES, titrated to pH 7.25 with KOH.
Xenon solutions were prepared by first bubbling pure gases (oxygen, nitrogen or xenon) through fine sintered-glass bubblers in 250- or 500-ml Drechsel bottles filled with extracellular recording saline. […] (To minimise oxidization, the neurotoxins and neurotransmitters were excluded from the fully oxygenated saline.) During bubbling, the solutions were continually stirred at room temperature. These solutions were then mixed to achieve the desired final concentrations of the gases. Our control solutions usually contained 80% of the nitrogen solution and 20% of the oxygen solution, while our test solutions usually contained 80% of the xenon solution and 20% of the oxygen solution. Using a Bunsen water/gas partition coefficient of 0.0965 (Smith R A et al, Biochim. Biophys. Acta 1981, 645:327-338) we calculate that our standard test solution contained 3.4 mM xenon. Xenon (research grade, 99.993% pure) was supplied by BOC gases, Guildford, Surrey, UK. In all cases xenon was pre-applied to the neurons for at least 30 seconds before the initiation of synaptic currents.
In order to obtain an estimate for the total charge transfer, the EPSCs or IPSCs were numerically integrated.

humans = settings: cited from earlier work
[4] = inhibitory currents + 3.4 mM xenon

[Xe] [xenon]
synaptic plasticity induced by NMA (c Fos expression) [1]: is inhibited
protection against excitotoxicity (LDH release) ([2]; 100 μM glutamate for 10 minutes, low, sub-anaesthetic concentrations of xenon, LDH after 6 hours): Highly significant protection
reduction of the injury produced by glutamate (LDH release) ([2]; 75% of one atmosphere xenon during exposure to 75 μM glutamate): more than 35%
reduction of the injury produced by glutamate (LDH release) ([2]; 75% xenon continued after 75 μM glutamate exposure): more than 60%
effect on inhibitory (GABAergic) postsynaptic currents ([3]; 3.4 mM xenon): negligible effects; also recorded: affected neither the peak value, nor the time course; also recorded: no significant effect
Ipeak % change (means ± SEM) ([3]; inhibitory currents + 3.4 mM (~1 MAC) xenon): −3.1 ± 2.2%
Decay half-time % change (means ± SEM) [3, 4]: −3.4 ± 2.4%
Ifast % change (means ± SEM) [3, 4]: −4.3 ± 2.8%
Islow % change (means ± SEM) [3, 4]: 18.8 ± 12.4%
Qfast % change (means ± SEM) [3, 4]: 1.5 ± 7.2%
Qslow % change (means ± SEM) [3, 4]: 12.6 ± 8.4%
Total charge transfer % change (means ± SEM) [3, 4]: −2.3 ± 3.9%
τfast % change (means ± SEM) [3, 4]: −1.3 ± 3.5%
τslow % change (means ± SEM) [3, 4]: 0.8 ± 6.0%
half maximal effective concentration EC50 as a human anaesthetic (humans; human): 71 % v/v
gaseous concentration which prevents a response to a painful stimulus (MAC) (humans; humans): 71 % atm
